Assay results from PubChem BioAssay AID1918940 (Molecular Pharmacology Branch, DTP, NCI, 2023).
pIC50: −log10 of the molar value.

System: NCI-H211 complex spheroid viability
Experiment: Anticancer human tumor NCI-H211 cell line growth inhibition [LSD1];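 also: luminescent viability read after seven days of drug exposure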;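 as to viability, T/C: 100% = DMSO vehicle control viability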
Conditions: for pIC50: curve of first compound; for viability, T/C: stronger effect = lower value
Procedure, shortened: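 Multicellular complex spheroids of tumor cells with human endothelial cells (HUVEC) and mesenchymal stem cells; the LSD1 inhibitor iadademstat was combined with standard-of-care or investigational agents. Top concentration at or near clinical Cmax, half-log dilutions; final DMSO ≤0.25%.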

[1] = second compound 0.1 µM, first compound 0.0316 µM
[2] = second compound 0.1 µM, first compound 0.1 µM
[3] = second compound 0.1 µM, first compound 0.316 µM
[4] = second compound 0.1 µM, first compound 1 µM
[5] = second compound 0.1 µM, first compound 3.16 µM
[6] = second compound 0.1 µM, first compound 10 µM
[7] = second compound 0.316 µM, first compound 0.0316 µM
[8] = second compound 0.316 µM, first compound 0.1 µM
[9] = second compound 0.316 µM, first compound 0.316 µM
[10] = second compound 0.316 µM, first compound 1 µM
[11] = second compound 0.316 µM, first compound 3.16 µM
[12] = second compound 0.316 µM, first compound 10 µM
[13] = second compound 1 µM, first compound 0.0316 µM
[14] = second compound 1 µM, first compound 0.1 µM
[15] = second compound 1 µM, first compound 0.316 µM
[16] = second compound 1 µM, first compound 1 µM
[17] = second compound 1 µM, first compound 3.16 µM
[18] = second compound 1 µM, first compound 10 µM
[19] = second compound 3.16 µM, first compound 0.0316 µM
[20] = second compound 3.16 µM, first compound 0.1 µM
[21] = second compound 3.16 µM, first compound 0.316 µM
[22] = second compound 3.16 µM, first compound 1 µM
[23] = second compound 3.16 µM, first compound 3.16 µM
[24] = second compound 3.16 µM, first compound 10 µM
[25] = second compound 10 µM, first compound 0.0316 µM
[26] = second compound 10 µM, first compound 0.1 µM
[27] = second compound 10 µM, first compound 0.316 µM
[28] = second compound 10 µM, first compound 1 µM
[29] = second compound 10 µM, first compound 3.16 µM
[30] = second compound 10 µM, first compound 10 µM
[31] = second compound 0.1 µM, first compound 0.00949 µM
[32] = second compound 0.1 µM, first compound 0.03 µM
[33] = second compound 0.1 µM, first compound 0.0949 µM
[34] = second compound 0.1 µM, first compound 0.3 µM
[35] = second compound 0.316 µM, first compound 0.00949 µM
[36] = second compound 0.316 µM, first compound 0.03 µM
[37] = second compound 0.316 µM, first compound 0.0949 µM
[38] = second compound 0.316 µM, first compound 0.3 µM
[39] = second compound 1 µM, first compound 0.00949 µM
[40] = second compound 1 µM, first compound 0.03 µM
[41] = second compound 1 µM, first compound 0.0949 µM
[42] = second compound 1 µM, first compound 0.3 µM
[43] = second compound 3.16 µM, first compound 0.00949 µM
[44] = second compound 3.16 µM, first compound 0.03 µM
[45] = second compound 3.16 µM, first compound 0.0949 µM
[46] = second compound 3.16 µM, first compound 0.3 µM
[47] = second compound 10 µM, first compound 0.00949 µM
[48] = second compound 10 µM, first compound 0.03 µM
[49] = second compound 10 µM, first compound 0.0949 µM
[50] = second compound 10 µM, first compound 0.3 µM

## CC1(C)CCC(CN2CCN(c3ccc(C(=O)NS(=O)(=O)c4ccc(NCC5CCOCC5)c([N+](=O)[O-])c4)c(Oc4cnc5[nH]ccc5c4)c3)CC2)=C(c2ccc(Cl)cc2)C1 + NC1CC1c1ccc(-c2cccc(O)c2)cc1
Second compound 0.1 µM
  pIC50: > 7.50
Second compound 0.316 µM
  pIC50: > 7.50
Second compound 1 µM
  pIC50: > 7.50
Second compound 3.16 µM
  pIC50: > 7.50
Second compound 10 µM
  pIC50: > 7.50
[1]
  viability, T/C: 43.8%
[2]
  viability, T/C: 38.7%
[3]
  viability, T/C: 35%
[4]
  viability, T/C: 53.4%
[5]
  viability, T/C: 100%
[6]
  viability, T/C: 52.7%
[7]
  viability, T/C: 36.8%
[8]
  viability, T/C: 37.9%
[9]
  viability, T/C: 37.2%
[10]
  viability, T/C: 53.2%
[11]
  viability, T/C: 100%
[12]
  viability, T/C: 65.1%
[13]
  viability, T/C: 27.5%
[14]
  viability, T/C: 47.8%
[15]
  viability, T/C: 26.1%
[16]
  viability, T/C: 44.5%
[17]
  viability, T/C: 90.8%
[18]
  viability, T/C: 55%
[19]
  viability, T/C: 32.1%
[20]
  viability, T/C: 28.1%
[21]
  viability, T/C: 29.8%
[22]
  viability, T/C: 30.8%
[23]
  viability, T/C: 58.9%
[24]
  viability, T/C: 46.2%
[25]
  viability, T/C: 32.7%
[26]
  viability, T/C: 26.2%
[27]
  viability, T/C: 21.2%
[28]
  viability, T/C: 28.2%
[29]
  viability, T/C: 30.5%
[30]
  viability, T/C: 21%

## CC1COCCN1c1cc(C2(S(C)(=N)=O)CC2)nc(-c2ccnc3[nH]ccc23)n1 (stereo not given) + NC1CC1c1ccc(-c2cccc(O)c2)cc1
Second compound 0.1 µM
  pIC50: 6.59
Second compound 0.316 µM
  pIC50: 6.58
Second compound 1 µM
  pIC50: 6.42
Second compound 3.16 µM
  pIC50: 6.50
Second compound 10 µM
  pIC50: 6.94
[1]
  viability, T/C: 89.3%
[2]
  viability, T/C: 68.7%
[3]
  viability, T/C: 48.5%
[4]
  viability, T/C: 19.1%
[5]
  viability, T/C: 4.67%
[6]
  viability, T/C: 2.73%
[7]
  viability, T/C: 85.4%
[8]
  viability, T/C: 72.9%
[9]
  viability, T/C: 46.9%
[10]
  viability, T/C: 13.5%
[11]
  viability, T/C: 5.02%
[12]
  viability, T/C: 2.53%
[13]
  viability, T/C: 74.2%
[14]
  viability, T/C: 64.3%
[15]
  viability, T/C: 57.5%
[16]
  viability, T/C: 15%
[17]
  viability, T/C: 5.48%
[18]
  viability, T/C: 3.11%
[19]
  viability, T/C: 69.6%
[20]
  viability, T/C: 73.2%
[21]
  viability, T/C: 48.8%
[22]
  viability, T/C: 16.3%
[23]
  viability, T/C: 5.24%
[24]
  viability, T/C: 3%
[25]
  viability, T/C: 65.7%
[26]
  viability, T/C: 51.6%
[27]
  viability, T/C: 33.1%
[28]
  viability, T/C: 14.5%
[29]
  viability, T/C: 5.1%
[30]
  viability, T/C: 3.28%

## CCN(c1cc(-c2ccc(CN3CCOCC3)cc2)cc(C(=O)NCc2c(C)cc(C)[nH]c2=O)c1C)C1CCOCC1 + NC1CC1c1ccc(-c2cccc(O)c2)cc1
Second compound 0.1 µM
  pIC50: 6.69
Second compound 0.316 µM
  pIC50: 7.16
Second compound 1 µM
  pIC50: 6.94
Second compound 3.16 µM
  pIC50: 6.90
Second compound 10 µM
  pIC50: 6.86
[31]
  viability, T/C: 74.4%
[32]
  viability, T/C: 62.2%
[33]
  viability, T/C: 61.3%
[34]
  viability, T/C: 43.7%
Second compound 0.1 µM, first compound 0.949 µM
  viability, T/C: 41%
Second compound 0.1 µM, first compound 3 µM
  viability, T/C: 40.9%
[35]
  viability, T/C: 84%
[36]
  viability, T/C: 67.3%
[37]
  viability, T/C: 42.7%
[38]
  viability, T/C: 48.8%
Second compound 0.316 µM, first compound 0.949 µM
  viability, T/C: 46.5%
Second compound 0.316 µM, first compound 3 µM
  viability, T/C: 36.3%
[39]
  viability, T/C: 83.4%
[40]
  viability, T/C: 48.5%
[41]
  viability, T/C: 65.8%
[42]
  viability, T/C: 38.1%
Second compound 1 µM, first compound 0.949 µM
  viability, T/C: 38.4%
Second compound 1 µM, first compound 3 µM
  viability, T/C: 30.3%
[43]
  viability, T/C: 79.3%
[44]
  viability, T/C: 58.7%
[45]
  viability, T/C: 50.5%
[46]
  viability, T/C: 46.3%
Second compound 3.16 µM, first compound 0.949 µM
  viability, T/C: 38.8%
Second compound 3.16 µM, first compound 3 µM
  viability, T/C: 27.4%
[47]
  viability, T/C: 70.3%
[48]
  viability, T/C: 58.6%
[49]
  viability, T/C: 46.6%
[50]
  viability, T/C: 51.7%
Second compound 10 µM, first compound 0.949 µM
  viability, T/C: 40.8%
Second compound 10 µM, first compound 3 µM
  viability, T/C: 32.1%

## Nc1ncn(C2CC(O)C(CO)S2)c(=O)n1 (stereo not given) + NC1CC1c1ccc(-c2cccc(O)c2)cc1
Second compound 0.1 µM
  pIC50: > 9.02
Second compound 0.316 µM
  pIC50: > 9.02
Second compound 1 µM
  pIC50: > 9.02
Second compound 3.16 µM
  pIC50: > 9.02
Second compound 10 µM
  pIC50: > 9.02
Second compound 0.1 µM, first compound 0.000949 µM
  viability, T/C: 35.2%
Second compound 0.1 µM, first compound 0.003 µM
  viability, T/C: 20.8%
[31]
  viability, T/C: 9.36%
[32]
  viability, T/C: 4.53%
[33]
  viability, T/C: 4.25%
[34]
  viability, T/C: 5.78%
Second compound 0.316 µM, first compound 0.000949 µM
  viability, T/C: 35.8%
Second compound 0.316 µM, first compound 0.003 µM
  viability, T/C: 16.6%
[35]
  viability, T/C: 8.03%
[36]
  viability, T/C: 5.12%
[37]
  viability, T/C: 5.19%
[38]
  viability, T/C: 5.71%
Second compound 1 µM, first compound 0.000949 µM
  viability, T/C: 40.5%
Second compound 1 µM, first compound 0.003 µM
  viability, T/C: 17.2%
[39]
  viability, T/C: 8.75%
[40]
  viability, T/C: 4.16%
[41]
  viability, T/C: 4.46%
[42]
  viability, T/C: 6.59%
Second compound 3.16 µM, first compound 0.000949 µM
  viability, T/C: 31.3%
Second compound 3.16 µM, first compound 0.003 µM
  viability, T/C: 15.9%
[43]
  viability, T/C: 8.59%
[44]
  viability, T/C: 5.64%
[45]
  viability, T/C: 5.95%
[46]
  viability, T/C: 4.49%
Second compound 10 µM, first compound 0.000949 µM
  viability, T/C: 32.3%
Second compound 10 µM, first compound 0.003 µM
  viability, T/C: 16.6%
[47]
  viability, T/C: 8.49%
[48]
  viability, T/C: 6.66%
[49]
  viability, T/C: 5.5%
[50]
  viability, T/C: 6.65%
